Values of other authors, collected in patent US20250304714A1, “Methods of Treating Metastatic Castration-Resistant Prostate Cancer with Bispecific Anti-PSMA x Anti-CD3 Antibodies Alone or in Combination with Anti-PD-1 Antibodies” (Regeneron Pharmaceuticals, Inc., priority 2022, published 2025).

Tests used:
[1] = intended dose ˜9±1 mCi per IV injection; cited from earlier work
[2] = multiple phase 1 to 3 studies, prostate cancer patients; cited from earlier work

For O=C(O)CC[C@H](NC(=O)N[C@@H](CCCCNC(=O)c1ccc(F)nc1)C(=O)O)C(=O)O [DCFPyL], the “Radiation dose from the PET/CT scan” value [1] is given as “about 7.4 mSv” and the tolerability [2] is given as “well tolerated”.
